For the assay, the system named is T47D human breast cancer cells. The assay can be described thus: In Vitro Testing-T47 D Assay (alkaline phosphatase assay). Format: cell-based. The conditions noted are these: alkaline phosphatase luminescence readout after 24 h. How it is done: In Vitro Testing-T47 D Assay
T47D human breast cancer cells are grown in RPMI medium without phenol red (Invitrogen) containing 10% (v/v) heat-inactivated fetal bovine serum (FBS; Hyclone), 1% (v/v) penicillin-streptomycin (Invitrogen), 1% (w/v) glutamine (Invitrogen), and […] (Sigma). Incubation conditions are 37° C. in a humidified 5% (v/v) carbon dioxide environment. For assay, the cells are plated in 96-well tissue culture plates at 10,000 cells per well in assay medium [RPMI medium without phenol red (Invitrogen) containing 5% (v/v) charcoal-treated FBS (Hyclone) and 1% (v/v) penicillin-streptomycin (Invitrogen)]. Two days later, the medium is decanted and the compounds are added in a final concentration of 0.1% (v/v) dimethyl sulfoxide in fresh assay medium. Twenty-four hours later, an alkaline phosphatase assay is performed using a SEAP kit (BD Biosciences Clontech, Palo Alto, Calif.). Briefly, the medium is decanted and the cells are fixed for 30 minutes at room temperature with 5% (v/v) formalin (Sigma). The cells are washed once with room temperature Hank's buffered saline solution (Invitrogen). Equal volumes (0.05 mL) of 1× Dilution Buffer, Assay Buffer and 1:20 substrate/enhancer mixture are added. After 1-hour incubation at room temperature in the dark, the lysate is transferred to a white 96-well plate (Dynex) and luminescence is read using a LuminoSkan Ascent (Thermo Electron, Woburn, Mass.).

Each structure is given as a SMILES string. Bounds are passed on as bounds.

For the compound `CC(C)(O)c1[nH]c2cc(C(F)(F)F)c([N+](=O)[O-])cc2c1Sc1ccccc1` [Example 1, 2-(5-Nitro-3-phenylsulfanyl-6-trifluoromethyl-1H-indol-2-yl)-propan-2-ol], under “Homo sapiens”, the inhibition at 3 µM is 99% and 62 nM corresponded to half-maximal inhibition (IC50).

Consider `C=C(C)c1[nH]c2cc(C(F)(F)F)c([N+](=O)[O-])cc2c1Sc1ccccc1` [Example 2, 2-Isopropenyl-5-nitro-3-phenylsulfanyl-6-trifluoromethyl-1H-indole], for which the IC50 (Homo sapiens, T47D, 24 h) is over 10000 nM.

For `O=[N+]([O-])c1ccc(Sc2c(-c3ccccc3)[nH]c3cc(Cl)c(F)cc23)cc1` [Example 3, 6-Chloro-5-fluoro-3-(4-nitro-phenylsulfanyl)-2-phenyl-1H-indole], for the setting “Homo sapiens, T47D, 24 h”, the inhibition at 3 µM turned out to be 88% and half-maximal inhibition (IC50) was put at 1400 nM.

With `CC(C)(O)c1[nH]c2cc(C(F)(F)F)c(C#N)cc2c1Sc1cccc([N+](=O)[O-])c1` [Example 4, 2-(1-Hydroxy-1-methyl-ethyl)-3-(3-nitro-phenylsulfanyl)-6-trifluoromethyl-1H-indole-5-carbonitrile], where the note is “Homo sapiens”, the inhibition at 3 µM worked out at 69% and the IC50 turned out to be 2190 nM.

Turning to `Fc1cc2c(Sc3ccccc3)c(-c3ccccc3)[nH]c2cc1Cl` [Example 5, 6-Chloro-5-fluoro-2-phenyl-3-phenylsulfanyl-1H-indole], under “Homo sapiens, T47D, 24 h”, the inhibition at 3 µM came to 103% and the 50% inhibitory concentration (IC50) was determined as 1760 nM.

On to `O=[N+]([O-])c1cccc(Sc2c(-c3ccccc3)[nH]c3cc(Cl)c(F)cc23)c1` [Example 6, 6-Chloro-5-fluoro-3-(3-nitro-phenylsulfanyl)-2-phenyl-1H-indole], for which, for the setting “Homo sapiens, T47D, 24 h”, the inhibition at 3 µM was 99% and the IC50 came to 1900 nM.

As to `O=[N+]([O-])c1cccc(S(=O)(=O)c2c(-c3ccccc3)[nH]c3cc(Cl)c(F)cc23)c1` [Example 7, 6-Chloro-5-fluoro-3-(3-nitro-benzenesulfonyl)-2-phenyl-1H-indole], the “inh. @ 3 uM” value is on record as 55%. For the same compound, the IC50 (Homo sapiens, T47D, 24 h) turned out to be 3620 nM.

As for `O=[N+]([O-])c1cccc(S(=O)(=O)c2c(-c3ccccc3)[nH]c3cc(Cl)c(F)cc23)c1` [Example 8, 6-Chloro-5-fluoro-3-(3-nitro-benzenesulfonyl)-2-phenyl-1H-indole], the “inh. @ 3 uM” value is 82% and inhibition was half-maximal at 3180 nM (IC50).

These data come from patent US7183309B2, “Indole derivatives useful as progesterone receptor modulators” (Janssen Pharmaceutica N.V., priority 2004, dated 2007).
